Assay [1] has as its target T1, Zinc finger protein mex-5 (Caenorhabditis elegans, UniProt Q9XUB2).
T1 sequence (Q9XUB2 whole entry): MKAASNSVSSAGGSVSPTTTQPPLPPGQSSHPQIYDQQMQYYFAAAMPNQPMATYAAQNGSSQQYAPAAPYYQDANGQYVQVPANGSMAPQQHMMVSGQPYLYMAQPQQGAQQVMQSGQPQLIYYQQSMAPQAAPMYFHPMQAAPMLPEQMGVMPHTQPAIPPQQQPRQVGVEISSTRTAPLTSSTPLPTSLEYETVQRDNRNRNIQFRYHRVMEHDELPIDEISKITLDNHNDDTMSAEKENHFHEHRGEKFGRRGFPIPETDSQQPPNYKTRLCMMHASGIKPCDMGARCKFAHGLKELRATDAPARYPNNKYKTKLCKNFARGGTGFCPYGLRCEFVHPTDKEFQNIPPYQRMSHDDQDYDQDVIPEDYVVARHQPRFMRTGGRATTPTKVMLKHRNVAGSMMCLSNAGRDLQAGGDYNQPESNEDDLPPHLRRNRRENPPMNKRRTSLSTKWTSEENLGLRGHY
Description: potency of MEX-5 RNA-binding blockers – biochemical, C. elegans, fluorescence polarization, dose response (AID 1960). (In general: In fluorescence polarisation assays a small probe gives low polarisation when free and higher when bound to something large.)

In assay [2] the target is Polyadenylate-binding protein 1 (Homo sapiens, UniProt P11940). Description: MLLE domain peptide-binding blockers, IC50 – biochemical, fluorescence polarization, FITC-PAM2 peptide, dose response (AID 602259). The class given is functional. As to conditions: read-out: IC50_Mean.
Assay [3] in a line: fluconazole-exposed Candida albicans growth modulators – fluorescence, retest, confirmation (AID 2467). It is filed as functional, cell-based.

The source made the active and inactive calls. Rule as the data show it, for most assays here: actives have a measured EC50 and inactives only a lower limit.

Chain of Polyadenylate-binding protein 1 (P11940 whole entry, the tested form may be a part): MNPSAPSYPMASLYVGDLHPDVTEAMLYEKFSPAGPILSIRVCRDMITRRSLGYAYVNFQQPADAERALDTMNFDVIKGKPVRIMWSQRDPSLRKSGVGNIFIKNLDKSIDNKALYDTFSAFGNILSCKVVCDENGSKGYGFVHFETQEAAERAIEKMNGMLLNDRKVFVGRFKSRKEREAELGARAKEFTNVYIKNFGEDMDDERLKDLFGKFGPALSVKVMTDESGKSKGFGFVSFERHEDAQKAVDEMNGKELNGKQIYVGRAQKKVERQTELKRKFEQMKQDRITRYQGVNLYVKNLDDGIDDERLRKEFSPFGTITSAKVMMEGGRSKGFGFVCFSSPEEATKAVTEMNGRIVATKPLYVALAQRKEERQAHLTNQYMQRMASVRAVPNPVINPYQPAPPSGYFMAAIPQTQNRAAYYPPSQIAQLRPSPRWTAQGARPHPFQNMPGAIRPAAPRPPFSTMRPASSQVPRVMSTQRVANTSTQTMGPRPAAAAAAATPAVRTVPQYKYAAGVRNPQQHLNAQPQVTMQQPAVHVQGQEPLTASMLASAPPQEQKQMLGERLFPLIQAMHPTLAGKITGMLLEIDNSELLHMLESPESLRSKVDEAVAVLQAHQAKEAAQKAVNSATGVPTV

As for `CN1CCc2cc3c(c4c2[C@H]1[C@H](O)c1ccccc1-4)OCO3`, the results for the EC50 in assay [1] and in assay [3] were 8.45 µM (inconclusive) and 2.74 µM (active), respectively. In assay [2], the IC50 was 25.8 µM (inactive).

As a reminder, the EC50 is the concentration needed to bring the measured effect to its halfway point.

Source of the values: ChEMBL document CHEMBL1201862, “PubChem BioAssay data set” (2004).
